In ChEMBL document CHEMBL1201862, “PubChem BioAssay data set” (2004):
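Dose response: 5 concentrations. Exposure: 48 h. Format: 96-well plates. Endpoint: linear interpolation; highest concentration if not reached. GI50 = concentration required for 50% inhibition of growth.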 Calls of active or inactive are those of the source. Cut-off read from the data, not from the text of the source: active = GI50 up to about 1.1 µM and inactive = higher.

Experiments:
Assay in all cases: growth of human tumour cells (NCI), 48 h
[1] = test system: CAKI-1
[2] = test system: U-251
[3] = test system: SF-539
[4] = test system: LOX IMVI
[5] = test system: HCT-15
[6] = test system: Hs-578T
[7] = test system: MOLT-4
[8] = test system: PC-3
[9] = test system: UO-31
[10] = test system: RPMI-8226
[11] = test system: HCC 2998
[12] = test system: HOP-92
[13] = test system: MDA-MB-435
[14] = test system: HT-29
[15] = test system: SF-295
[16] = test system: Malme-3M
[17] = test system: OVCAR-3
[18] = test system: HL-60
[19] = test system: SW-620
[20] = test system: UACC-257
[21] = test system: SK-MEL-5
[22] = test system: A498
[23] = test system: DU-145
[24] = test system: K562
[25] = test system: NCI/ADR-RES
[26] = test system: MCF7
[27] = test system: UACC-62
[28] = test system: COLO 205
[29] = test system: CCRF-CEM
[30] = test system: KM12
[31] = test system: NCI-H23
[32] = test system: EKVX
[33] = test system: SNB-75
[34] = test system: NCI-H226
[35] = test system: SK-OV-3
[36] = test system: NCI-H522
[37] = test system: SF-268
[38] = test system: OVCAR-8
[39] = test system: ACHN
[40] = test system: A549
[41] = test system: SNB-19
[42] = test system: HOP-62
[43] = test system: SR
[44] = test system: NCI-H460
[45] = test system: RXF 393
[46] = test system: TK-10
[47] = test system: T47D
[48] = test system: MDA-N
[49] = test system: M14
[50] = test system: OVCAR-4
[51] = test system: SK-MEL-2
[52] = test system: SK-MEL-28
[53] = test system: MDA-MB-231
[54] = test system: IGROV-1
[55] = test system: OVCAR-5

Compound: COc1ccc([C@H]2C=[N+]([O-])O[C@H](OC3CCCC3)[C@@H]2OC(C)=O)cc1OC
- GI50 [1]: 14 µM (inactive)
- GI50 [2]: 35 µM (inactive)
- GI50 [3]: 16.4 µM (inactive)
- GI50 [4]: 15.4 µM (inactive)
- GI50 [5]: 29.2 µM
- GI50 [6]: 29.9 µM (inactive)
- GI50 [7]: 32.6 µM (inactive)
- GI50 [8]: 44.8 µM (inactive)
- GI50 [9]: 18.7 µM (inactive)
- GI50 [10]: 23.5 µM (inactive)
- GI50 [11]: 13.2 µM (inactive)
- GI50 [12]: 14.3 µM (inactive)
- GI50 [13]: 25.4 µM (inactive)
- GI50 [14]: 20.7 µM (inactive)
- GI50 [15]: > 100 µM (inactive)
- GI50 [16]: 25.9 µM (inactive)
- GI50 [17]: 26 µM (inactive)
- GI50 [18]: 18.5 µM (inactive)
- GI50 [19]: 19.8 µM (inactive)
- GI50 [20]: 19.7 µM (inactive)
- GI50 [21]: 13.1 µM (inactive)
- GI50 [22]: > 100 µM (inactive)
- GI50 [23]: 29.3 µM (inactive)
- GI50 [24]: 39.3 µM (inactive)
- GI50 [25]: 31.8 µM (inactive)
- GI50 [26]: 22.3 µM (inactive)
- GI50 [27]: 22.8 µM (inactive)
- GI50 [28]: 15.9 µM (inactive)
- GI50 [29]: 0.098 µM (active)
- GI50 [30]: 26.4 µM (inactive)
- GI50 [31]: 25.6 µM (inactive)
- GI50 [32]: 22.3 µM (inactive)
- GI50 [33]: 28.4 µM (inactive)
- GI50 [34]: 47.6 µM (inactive)
- GI50 [35]: > 100 µM (inactive)
- GI50 [36]: 5.66 µM (inactive)
- GI50 [37]: 33.7 µM (inactive)
- GI50 [38]: 20.7 µM (inactive)
- GI50 [39]: 22.2 µM (inactive)
- GI50 [40]: 29.4 µM (inactive)
- GI50 [41]: > 100 µM (inactive)
- GI50 [42]: 72.1 µM (inactive)
- GI50 [43]: 41.8 µM (inactive)
- GI50 [44]: 43.9 µM (inactive)
- GI50 [45]: 13.3 µM (inactive)
- GI50 [46]: 23.1 µM (inactive)
- GI50 [47]: 16.1 µM (inactive)
- GI50 [48]: 37.8 µM (inactive)
- GI50 [49]: 21.4 µM (inactive)
- GI50 [50]: 33.6 µM (inactive)
- GI50 [51]: 69.3 µM (inactive)
- GI50 [52]: 20.8 µM (inactive)
- GI50 [53]: 32.7 µM (inactive)
- GI50 [54]: 18.3 µM (inactive)

Compound: CCOC(=O)c1csc(NC(=O)CCCC#N)n1
- GI50 [1]: > 100 µM (inactive)
- GI50 [2]: > 100 µM (inactive)
- GI50 [3]: > 100 µM (inactive)
- GI50 [4]: > 100 µM (inactive)
- GI50 [5]: > 100 µM
- GI50 [6]: > 100 µM (inactive)
- GI50 [7]: > 100 µM (inactive)
- GI50 [8]: > 100 µM (inactive)
- GI50 [9]: > 100 µM (inactive)
- GI50 [10]: > 100 µM (inactive)
- GI50 [11]: > 100 µM (inactive)
- GI50 [12]: > 100 µM (inactive)
- GI50 [13]: > 100 µM (inactive)
- GI50 [14]: > 100 µM (inactive)
- GI50 [15]: > 100 µM (inactive)
- GI50 [17]: > 100 µM (inactive)
- GI50 [18]: > 100 µM (inactive)
- GI50 [19]: > 100 µM (inactive)
- GI50 [20]: > 100 µM (inactive)
- GI50 [21]: > 100 µM (inactive)
- GI50 [22]: > 100 µM (inactive)
- GI50 [23]: > 100 µM (inactive)
- GI50 [24]: > 100 µM (inactive)
- GI50 [25]: > 100 µM (inactive)
- GI50 [26]: > 100 µM (inactive)
- GI50 [27]: > 100 µM (inactive)
- GI50 [28]: > 100 µM (inactive)
- GI50 [29]: > 100 µM (inactive)
- GI50 [30]: > 100 µM (inactive)
- GI50 [31]: > 100 µM (inactive)
- GI50 [33]: > 100 µM (inactive)
- GI50 [34]: > 100 µM (inactive)
- GI50 [35]: > 100 µM (inactive)
- GI50 [38]: > 100 µM (inactive)
- GI50 [39]: > 100 µM (inactive)
- GI50 [40]: > 100 µM (inactive)
- GI50 [41]: > 100 µM (inactive)
- GI50 [42]: > 100 µM (inactive)
- GI50 [43]: > 100 µM (inactive)
- GI50 [44]: > 100 µM (inactive)
- GI50 [45]: > 100 µM (inactive)
- GI50 [46]: > 100 µM (inactive)
- GI50 [47]: > 100 µM (inactive)
- GI50 [55]: > 100 µM (inactive)
- GI50 [48]: > 100 µM (inactive)
- GI50 [49]: > 100 µM (inactive)
- GI50 [50]: > 100 µM (inactive)
- GI50 [51]: > 100 µM (inactive)
- GI50 [52]: > 100 µM (inactive)
- GI50 [53]: > 100 µM (inactive)
